Measurements published in US20210008015A1, “HEPATOPROTECTENT PHENYLBUTYRATYRATE DRUG CONJUGATES, AND THEIR COMPOSITIONS PREPARATION AND METHODS OF USE THEREOF” (priority 2019, published 2021).
Values joined by “and” are separate entries in the source; they are usually repeats but may differ in a detail not shown here. Identical values can stand only once.

Experiments:
yeast-induced pyrexia = test: In vivo comparative antipyretic effect study (Baker's yeast induced pyrexia); parameters: species or system SD rats; details: for Effect on yeast-induced pyrexia (rise in temperature), 3 hours / Effect on yeast-induced pyrexia (rise in temperature), 6 hours / Effect on yeast-induced pyrexia (rise in temperature), 9 hours: SD rats, Test 300 mg/kg orally, reference 150 mg/kg, Mean ± SD, in °C (unit assumed)
Protocol: The in vivo pharmacological study conducted the anti-pyretic activity of acetaminophen Phenylbutyrate (APPB) formulations in SD rats against yeast induced pyrexia 12 rats (M&F) (Baker's yeast induced antipyretic model 24 hr) After measuring basal TR of the animals, they were injected with a pyrogenic dose of Baker's yeast (0.135 g/kg, i.p.). TR changes were recorded every hour up to 4 h. […] Animals were randomly divided into three groups 4 rats in each group, Group-A Test (Acetaminophen phenylbutyrate) and Group-B reference (Acetaminophen) and Group-C Control (placebo). Group-A 4 rats (2M & 2F) were treated with Test 300 mg/kg orally given and 150 mg/kg reference compound given to Group-B 4 rats (2M & 2F) and placebo given to group-C. From the time baker yeast injection body temperature will rise keep monitor every 30-60 min once and record. And after treatment (time after treatment with test, reference and placebo) the body temperature was monitored rectally, for next 6 hr (0, 0.5, 1.0, 1.5, 2, 3, 4, and 6) using digital thermometer which can capture 0.1 F body temp ad recorded. […] Yeast injection in experimental animals caused significant rise in body temperature at the various time intervals as recorded rectally with the help of a tele-thermometer.

formaldehyde pain model = test: In vivo comparative pain-relieving model study (formaldehyde pain model); parameters: species or system Rabbits; details: Test 300 mg/kg orally, reference 150 mg/kg; for Amplitude of rubbing activity, Mean / Amplitude of rubbing activity, Sum: group of 4 rabbits; for Amplitude of rubbing activity, Mean / Amplitude of rubbing activity, Sum / Amplitude of rubbing activity: 60 min post dose of formalin; for No. of rubbings / Amplitude of rubbing activity: individual rabbit; for No. of rubbings: 60 min post dose of formalin (2.5%, 0.1 ml into paw)
Protocol: 12 Rabbits (M&F) (formaldehyde pain model 6 hr) were divided into 3 groups 4 rabbits in each group, Group-A Test (Acetaminophen phenylbutyrate) and Group-B reference (Acetaminophen) and Group-C Control (placebo). Group-A 4 rabbits (2M & 2F) were treated with Test 300 mg/kg orally given and 150 mg/kg; reference compound given to Group-B 4 rabbits (2M & 2F) and placebo given to group-C after 15 min each rat was dosed with 2.5% formalin in saline solution 0.1 ml was injected into middle of paw, and monitor for number of licking or scratching's happened with each animal in all groups and compared each group with other in the below table.

Sprague Dawley (SD) rats = test: In vivo safety and dose ranging study

Structure (SMILES)	Effect on yeast-induced pyrexia (rise in temperature), 3 hours (yeast-induced pyrexia)	Effect on yeast-induced pyrexia (rise in temperature), 6 hours (yeast-induced pyrexia)	Effect on yeast-induced pyrexia (rise in temperature), 9 hours (yeast-induced pyrexia)	attenuation of rise in temperature, in words (yeast-induced pyrexia; all time intervals)	Amplitude of rubbing activity, Mean (formaldehyde pain model) [s]	Amplitude of rubbing activity, Sum (formaldehyde pain model) [s]	No. of rubbings (formaldehyde pain model)	Amplitude of rubbing activity (formaldehyde pain model)	attenuation of rise in temperature, in words (yeast-induced pyrexia; 6 and 9 h after yeast injection, in comparison to placebo control group)	attenuation of rise in temperature, in words (yeast-induced pyrexia; 3 h after yeast injection)	treatment related clinical signs (Sprague Dawley (SD) rats; 500, 1000 and 1500 mg/kg/per day orally for 5 days, M&F SD rats)	survival (Sprague Dawley (SD) rats; 500, 1000 and 1500 mg/kg/per day orally for 5 days, observation for one week after treatment)	overall safety conclusion (Sprague Dawley (SD) rats; 500-1500 mg/kg/per day orally for 5 days)
CC(=O)Nc1ccc(O)cc1 [Acetaminophen, N-(4-hydroxyphenyl)acetamide, reference compound]	0.83 ± 0.08	1.31 ± 0.23	1.91 ± 0.14	attenuated the rise in temperature to a significant extent at all time intervals	2.78	16.7	1 (2×) and 2 (2×)	3.1 s and 6.7 s and 2.6 s and 4.3 s	–	–	–	–	–
CC(=O)N(C(=O)CCCc1ccccc1)c1ccc(O)cc1 [APPB, N-(4-phenylbutanoyl)-N-(4-hydroxyphenyl)acetanyide]	1.21 ± 0.13	1.48 ± 0.08	1.83 ± 0.06	–	3.62	36.19	4 and 3 and 2 and 1	12.64 s and 11.84 s and 6.69 s and 5.02 s	attenuated the raise in temperature in a highly significant manner	significantly attenuated the rise in temperature	No treatment related clinical signs were noticed	All group animals were survived	safe for prolonged use at higher doses
